Source: US7037693B2, “Muskmelon (Cucumis melo) hydroperoxide lyase and uses thereof” (Vanderbilt University, priority 2000, dated 2006)
“And” between values parts separate entries of the source, which are not always exact repeats. Equal entries are not always repeated.

Assays:
[1] = target: melon 9-hydroperoxide lyase (9-HPL) (Cucumis melo, UniProt A0A1S3BZK9); assay: Kinetics of melon 9-HPL with fatty acid hydroperoxide substrates (spectrophotometric assay, decrease in absorbance at 235 nm); assay type: biochemical; details: relative to 9-hydroperoxylinolenic acid; 'preferably approximately' value
Protocol: The resulting pellet of cells was resuspended in Tris-acetate buffer (0.1 M, pH 7.6) containing sucrose (0.5 M), EDTA (0.5 mM) and lysozyme (1 mg/ml). After 30 min on ice, the mixture was centrifuged as before to obtain a pellet of spheroplastes. These were resuspended in potassium phosphate buffer (0.1 M, pH 7.6) containing magnesium acetate (6 mM), glycerol (20% v/v) and DTT (0.1 mM) and the mixture left for 10 min at −80° C. Following this, a protease inhibitor was added (PMSF, 1 mM) and the cells sonicated (2×30 seconds). […] Compared to the control protein produced from vector alone with no cDNA insert, there was less protein, but the bacterial lysates of each gave easily measurable catalytic activity. By monitoring the disappearance of the UV-235 nm absorbance of the fatty acid hydroperoxide substrates, less than 1 μl (<10 μg crude protein) of the suspended and lysed bacterial pellets were required in order to observe reaction in a 1 ml UV cuvette. Measurement was made using the spectrophotometric assay (decrease in absorbance at 235 nm) and the initial rates of reaction. The turnover number of the purified 9-HPL enzyme (number of product molecules formed per molecule of enzyme) using 9S-hydroperoxylinoleic acid as substrate was calculated from the known concentration of the enzyme (measured at the Soret maximum at 416 nm, and using a molar extinction coefficient of 100,000), and the measured rates of change of substrate concentration (using the molar extinction coefficient of 23,000 at 235 nm of the conjugated diene).

[2] = substrate: CCCCC/C=C\C=C\[C@H](CCCCCCCC(=O)O)OO; assay: as above; assay type: biochemical, Cucumis melo; details: 95% confidence limits given; pH 7.6
Protocol: (§1) The resulting pellet of cells was resuspended in Tris-acetate buffer (0.1 M, pH 7.6) containing sucrose (0.5 M), EDTA (0.5 mM) and lysozyme (1 mg/ml). After 30 min on ice, the mixture was centrifuged as before to obtain a pellet of spheroplastes. These were resuspended in potassium phosphate buffer (0.1 M, pH 7.6) containing magnesium acetate (6 mM), glycerol (20% v/v) and DTT (0.1 mM) and the mixture left for 10 min at −80° C. Following this, a protease inhibitor was added (PMSF, 1 mM) and the cells sonicated (2×30 seconds). […] By monitoring the disappearance of the UV-235 nm absorbance of the fatty acid hydroperoxide substrates, less than 1 μl (<10 μg crude protein) of the suspended and lysed bacterial pellets were required in order to observe reaction in a 1 ml UV cuvette. Measurement was made using the spectrophotometric assay (decrease in absorbance at 235 nm) and the initial rates of reaction. The turnover number of the purified 9-HPL enzyme (number of product molecules formed per molecule of enzyme) using 9S-hydroperoxylinoleic acid as substrate was calculated from the known concentration of the enzyme (measured at the Soret maximum at 416 nm, and using a molar extinction coefficient of 100,000), and the measured rates of change of substrate concentration (using the molar extinction coefficient of 23,000 at 235 nm of the conjugated diene).

[3] = substrate: CC/C=C\C[C@@H](/C=C/C=C\CCCCCCCC(=O)O)OO; assay: as above; assay type: biochemical, Cucumis melo; details: 95% confidence limits given; pH 7.6
Protocol: as §1

[4] = pH dependence of the activity of the lyase; assay type: biochemical, Cucumis melo

CCCCC/C=C\C=C\[C@H](CCCCCCCC(=O)O)OO [9-hydroperoxylinoleic acid, (9S, 10E, 12Z) 9-hydroperoxyoctadeca-10,12-dienoic acid]
Km as percentage of the Km of the lyase for 9-hydroperoxylinolenic acid [1]: approximately 54% | Vmax as percentage of the Vmax of the lyase for 9-hydroperoxylinolenic acid [1]: approximately 55%

CCCCC[C@@H](/C=C/C=C\CCCCCCCC(=O)O)OO [13-hydroperoxylinoleic acid, (9Z,11E,13S)13-hydroperoxyoctadeca-9,11-dienoic acid]
Vmax as percentage of the Vmax of the lyase for 9-hydroperoxylinolenic acid [1]: approximately 30%

CC/C=C\C[C@@H](/C=C/C=C\CCCCCCCC(=O)O)OO [13-hydroperoxylinolenic acid, (9Z, 11E, 13S, 15Z) 13-hydroperoxyoctadeca-9,11,15-trienoic acid]
Vmax as percentage of the Vmax of the lyase for 9-hydroperoxylinolenic acid [1]: approximately 22%

B1: melon 9-hydroperoxide lyase (9-HPL) (Cucumis melo) (protein)
chain: MATPSSSSPELPLKPIPGGYGFPFLGPIKDRYDYFYFQGRDEFFRSRITKYNSTVFRANMPPGPFISSDSRVVVLLDALSFPILFDTAKVEKRNILDGTYMPSLSFTGNIRTCAYLDPSETEHSVLKRLFLSFLASRHDRFIPLFRSSLSEMFVKLEDKLSEKKKIADFNSISDSMSFDYVFRLLSDGTPDSKLAAEGPGMFDLWLVFQLAPLASIGLPKIFSVFEDLVIHTIPLPFFPVKSGYRKLYEAFYSSSGSFLDEAEKQGIDREKACHNLVFLAGFNAYGGMKVLFPTLLKWVGTAGEDLHRKLAEEVRTTVKEEGGLTFSALEKMSLLKSVVYEALRIEPPVPFQYGKAKEDIVIQSHDSSFKIKKGETIFGYQPFATKDPKIFKDSEKFVGDRFVGEEGEKLLKYVYWSNERETVEPTAENKQCPGKNLVVLIGRIMVVEFFLRYDTFTVEVADLPLGPAVKFKSLTRATDMV
Km [2]: 192 µM | Km [3]: 50 µM and 51 µM

B2: lyase: fatty acid 9-hydroperoxide lyase of muskmelon (Cucumis melo), SEQ ID NO:7, recombinantly expressed in E. coli (protein)
chain: B1 chain
modifications: Cucumis melo
activity as percentage of maximal activity ([4]; pH 5.0): approximately 25% | activity as percentage of maximal activity ([4]; pH 9.0): approximately 15%
